The text below walks through data of US20060172019A1 (priority 2003, published 2006).

Entries after “also recorded” stand apart in the source; their conditions may differ. Read-outs that look alike come from different tables or passages of the source.

Assay [1] relates to J774 murine macrophage cells. Put plainly: Alamar Blue J774 murine macrophage viability assay. It is filed as cell-based. Particulars: for IC50: Mus musculus; for effect on J774 survival: data not shown. How it is done:
J774 cells were plated at 10^4 cells per well in 150 μL αMEM (α Modified Eagle Medium) in 96-well plates and grown overnight. The next day, compounds were added to the cultures, and culture was continued for another 72 hours.
Alamar Blue is an oxidation-reduction sensitive indicator. The dye itself is in the oxidised state, which is blue and non-fluorescent. The dye can accept electrons from reducing species, such as NADPH and FADH, to form a reduced dye species, which is red and fluorescent. Thus the transformation from oxidised form to reduced form can be measured by fluorimetric or colourimetric means. For fluorescence measurements, 530-560 nm excitation and 590 nm emission wavelengths are typically used. For colourimetric measurements, absorbance is measured at 570 nm (reduced form) and 600 nm (oxidised form) and a simple calculation performed to determine the relative quantities of the two species.
A high ratio of the reducing species, NADPH and FADH, to the corresponding oxidised species, NADP and FAD, is an indicator that cells are proliferating and viable. A low ratio indicates cells that are quiescent or non-viable.
Briefly, Alamar Blue (Biosource International) was added undiluted to the each well (1:10 v/v, 15 μL). The plate was incubated at 37° C. for 3-4 hours and the fluorescence was measured at 570 nm, with a 25 nm bandwidth. A high reading indicated cells with normal viability, and a low reading indicates cells that have been damaged and are no longer proliferating normally.
In general, compounds studied were made up as 100 mM solutions in DMSO. These stock solutions were then diluted 100 or 1000× in culture medium (αMEM).
On the technique in general: Alamar Blue is a resazurin reagent that responds to reducing activity.

Assay [2] relates to rabbit osteoclasts. Put plainly: Rabbit osteoclast culture. It is filed as cell-based.
Protocol: Osteoclast survival and activity was studied in cultures of rabbit osteoclasts. Osteoclasts were isolated from the long bones of 2-3 day-old rabbits as described previously (see, e.g., Coxon et al., 2000), plated on dentine slices and cultured in αMEM supplemented with 10% FCS and penicillin and streptomycin at 37° C. in 5% CO2 for 48 hours in the presence or absence of test compounds.
Assay [3] relates to ovariectomy induced bone loss. Put plainly: Ovariectomy induced bone loss, peripheral quantitative computed tomography. It is filed as in vivo, C57/BL6 mice. The following applies: for ovariectomy-induced bone loss in a mouse model: in vivo.
Assay [4] addresses T1, CB1 receptor (Homo sapiens, UniProt P21554). Particulars: cited from earlier work.
For assay [5], the target named is T1, CB1 receptor. Particulars: read-out: Ki (nM) CB1, cited from earlier work.
Assay [6] has as its target T2, CB2 receptor (Homo sapiens, UniProt P34972). Particulars: cited from earlier work; for Classification CB2: Table 1; for CB receptor function (CB2): Table 2.
Assay [7] deals with T2, CB2 receptor.
The test system of assay [8] is mouse osteoblasts. The assay is described as follows: Mouse osteoblast culture (Alamar Blue). It is filed as cell-based. The following applies: 72 hours, n=3.
Protocol: Osteoblasts were isolated as described above and plated at 10^4 cells/well in 96-well plates in 100 μL of αMEM supplemented with 10% FCS and antibiotics. Test substances were added after 24 hours and left for 72 hours. Cell viability was assessed using the Alamar Blue assay.
The test system of assay [9] is osteoclasts. The assay is described as follows: cells. It is filed as cell-based, mice. The following applies: Mus musculus, Osteoclast; TRAcP MNC and resorbed area, n=3; read-out: IC50, inhibition of osteoclast function and bone resorption.
Protocol: Osteoblasts were isolated from the calvarial bones of 2-day-old mice by sequential collagenase digestion (type I collagenase, Sigma) and cultured in αMEM supplemented with 10% FCS and penicillin and streptomycin at 37° C. in 5% CO2. […] The resulting bone marrow cells were washed with PBS and resuspended in culture medium.
Osteoblasts and bone marrow cells were plated at 10^4 cells/well and 2×10^5 cells/well, respectively, in 96-well plates in 150 μL of αMEM supplemented with 10% FCS, antibiotics and 10 nM 1,25-dihydroxyvitamin D3. Test substances were added on day 7 and the cultures were terminated on day 10. At the end of the culture period, osteoclasts were identified by TRAcP staining and resorption pits were quantified by reflected light microscopy, as described above.
Assay [10] concerns ovariectomy induced bone loss. The assay is described as follows: Ovariectomy induced bone loss, dual energy x-ray absorptiometry. It is filed as in vivo, C57/BL6 mice. Particulars: 6 mg/kg, OVX operation, DEXA. As for the experimental part:
Animals. Female 9 week-old C57/BL6 mice. Animals were housed in a designated animal facility and routinely maintained on a 12 h:12 h light:dark cycle and given ad libitum access to food and water.
Ovariectomy induced bone loss. Bilateral ovariectomy (Ovx) was performed under general anaesthesia. Sham ovariectomy (Sham) was similarly performed but with externalisation and replacement of the ovaries. Animals were given a daily injection of (a) candidate compound (e.g., 6 mg/kg) in vehicle (corn oil), or (b) vehicle (corn oil). After 21 days, the animals were killed, and the tibial bones were dissected and used for bone mineral density measurements and histomorphometric analysis (see below).
Whole body, spine and femoral bone mineral density (BMD) and bone mineral content (BMC) were determined using a Piximus small animal DEXA scanner at the start and the end of the experiment. Daily quality assurance measurements were performed using a phantom according to the manufacturer's instructions.

The mark [11] stands for this setting: J774, Alamar Blue, 72 hours, n=3, read-out: IC50, J774 survival.
[12] abbreviates: J774 viability assay, Table 2, read-out: IC50 in J774 cells.
The mark [13] stands for this setting: Table 1; read-out: Ki (nM) CB2; cited from earlier work.

T2 sequence (P34972 whole entry): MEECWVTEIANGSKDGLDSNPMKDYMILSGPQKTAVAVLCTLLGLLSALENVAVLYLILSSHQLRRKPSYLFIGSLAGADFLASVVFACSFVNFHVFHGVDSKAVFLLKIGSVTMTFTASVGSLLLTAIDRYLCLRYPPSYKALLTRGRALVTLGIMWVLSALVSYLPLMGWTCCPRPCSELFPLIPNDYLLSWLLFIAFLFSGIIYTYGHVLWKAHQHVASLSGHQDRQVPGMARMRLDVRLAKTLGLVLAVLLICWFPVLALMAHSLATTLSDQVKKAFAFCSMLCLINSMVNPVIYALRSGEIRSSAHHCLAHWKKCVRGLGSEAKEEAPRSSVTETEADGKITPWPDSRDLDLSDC
T1 sequence (P21554 whole entry): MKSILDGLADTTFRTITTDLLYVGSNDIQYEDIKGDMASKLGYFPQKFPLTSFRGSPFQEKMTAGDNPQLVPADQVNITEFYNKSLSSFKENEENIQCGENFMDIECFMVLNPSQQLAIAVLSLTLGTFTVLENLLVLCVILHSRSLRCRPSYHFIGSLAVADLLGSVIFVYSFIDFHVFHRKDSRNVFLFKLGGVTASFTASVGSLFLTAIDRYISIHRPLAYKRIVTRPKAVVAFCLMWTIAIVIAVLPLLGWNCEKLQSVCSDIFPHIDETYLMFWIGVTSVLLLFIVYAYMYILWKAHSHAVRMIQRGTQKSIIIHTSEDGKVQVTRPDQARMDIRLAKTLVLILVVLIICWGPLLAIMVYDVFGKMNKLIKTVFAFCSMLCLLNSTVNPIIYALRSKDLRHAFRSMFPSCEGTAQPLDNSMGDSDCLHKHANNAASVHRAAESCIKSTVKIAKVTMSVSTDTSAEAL

`Cc1c(C(=O)NN2CCCCC2)nn(-c2ccc(Cl)cc2Cl)c1-c1ccc(I)cc1` [AM251]: the “J774 viability (summary in words)” value in assay [1] is listed as “inhibit”. Further, the “bone resorption (resorbed area)” value in assay [2] (10 μM (p<0.03) and 20 μM (p<0.01), 48 hours) is “reduced”. In addition, in [3], the “ovariectomy-induced bone loss in a mouse model” value is given as “completely reverse”. Besides, in [4], the “CB receptor function (CB1)” value is “CB1 inverse agonist” and the “Classification CB1” value is reported as “Inverse agonist”.
The Ki is the equilibrium dissociation constant of an inhibitor or competing ligand from its target. With `Cc1c(C(=O)NN2CCOCC2)nn(-c2ccc(Cl)cc2Cl)c1-c1ccc(I)cc1` [AM281], the “Classification CB1” value in [4] (Table 1) is recorded as “Inverse agonist”. For the same compound, the Ki in [5] (Table 1) was 12 nM.
As a reminder, the IC50 is the concentration that gives 50% inhibition. Regarding `COc1ccc(C(=O)c2c(C)n(CCN3CCOCC3)c3cc(I)ccc23)cc1` [AM630], the “J774 viability (summary in words)” value in [1] was “inhibit”. For the same compound, the IC50 in assay [1] (setting [11]) is ~20 µM. In addition, the IC50 in assay [1] (setting [12]) stood at 20 µM. Moreover, in assay [6], the “Classification CB2” value is “Inverse agonist” and the “CB receptor function (CB2)” value was “CB2 inverse agonist”.
As to `CCCCC/C=C\C/C=C\C/C=C\C/C=C\CCCC(=O)NCCO` [Anandamide, arachidonyl ethanolamide], in assay [1], the “J774 viability (summary in words)” value is recorded as “inhibits”. Further, in assay [1] (setting [11]), the 50% inhibitory concentration (IC50) is ~40 µM. In assay [1] (setting [12]), the IC50 turned out to be 40 µM. The “effect on J774 survival” value in [1] (low concentrations) is reported as “no effect”. For the same compound, in [6], the “Classification CB2” value is “Partial agonist” and the “CB receptor function (CB2)” value is “CB2 partial agonist/; also recorded: antagonist”.
Consider `CCCCCCC(C)(C)c1ccc([C@@H]2C[C@H](O)CC[C@H]2CCCO)c(O)c1` [CP55940], for which, in assay [1], the “J774 viability (summary in words)” value was “do not affect”. In addition, the “IC50 in J774 cells” value in assay [1] (J774 viability assay, Table 2) is “inactive”. Besides, in [1] (concentrations of up to 100 μM), the “effect on J774 survival” value is listed as “did not affect”. In addition, in assay [4], the “CB receptor function (CB1)” value is “CB1 agonist”. For the same compound, the “CB receptor function (CB2)” value in [6] is given as “CB2 agonist”.
For the compound `CCCCCc1cc(O)c2c(c1)OC(C)(C)c1ccc(C)cc1-2` [Cannabinol, cannabinol], the Ki in [7] (read-out: Ki (nM) CB2; Table 1; cited from earlier work) is 580 nM; in assay [5] it was 115 nM. In addition, in assay [4], the “Classification CB1” value is reported as “Neutral antagonist”. Also, the “Classification CB2” value in [6] is reported as “Inverse agonist”.
As for `CCCCCOc1c(OC)ccc2cc(C(=O)NCc3ccc4c(c3)OCO4)c(=O)[nH]c12` [JTE-907, 7-Methoxy-2-oxo-8-pentyloxy-1,2-dihydro-quinoline-3-carboxylic acid (benzo[1,3]dioxol-5-yl-methyl)-amide], in assay [1] (setting [11]), the IC50 was ~25 µM. The IC50 in assay [1] (setting [12]) came to 25 µM. The osteoblast survival entry in [8] is “little activity”. Further, in [4], the “Classification CB1” value is recorded as “Inactive”. In addition, in [6], the “Classification CB2” value was “Inverse agonist” and the “CB receptor function (CB2)” value is reported as “CB2 inverse agonist”. For the same compound, the Ki in [5] is 684 nM.
Consider `CCCC(C)(C)c1ccc2c(c1)OC(C)(C)[C@@H]1CC=C(C)C[C@@H]21` [JWH 133], for which, in [1], the “J774 viability (summary in words)” value is listed as “does not affect”. Moreover, the “IC50 in J774 cells” value in assay [1] (J774 viability assay, Table 2) was “inactive”. Further, the “effect on J774 survival” value in [1] (concentrations of up to 20 μM) is reported as “did not affect”. In addition, the “CB receptor function (CB2)” value in assay [6] was “CB2-selective agonist”.
Take `COc1ccc(-c2oc3cc(OC)ccc3c2C(=O)c2ccc(C#N)cc2)cc1` [LY320135]: the “Classification CB1” value in [4] (Table 1) is recorded as “Inverse agonist”. Further, in assay [6], the “Classification CB2” value was “Inactive”.
Consider `CC1=CCC2[C@@H](C1)c1c(O)cc(CC#CCCCN=[N+]=[N-])cc1OC2(C)C` (stereo partly drawn) [O1184], for which the Ki was 7.4 nM in assay [7] (setting [13]) and 5.2 nM in [5] (Table 1). In addition, the “Classification CB1” value in assay [4] (Table 1) is on record as “Partial agonist”. Further, the “Classification CB2” value in assay [6] was “Inverse agonist”.
As to `CC1=CCC2[C@@H](C1)c1c(O)cc(C/C=C\CCCN=[N+]=[N-])cc1OC2(C)C` (stereo partly drawn) [O1238], the results for the Ki in assay [7] (setting [13]) and in assay [5] (Table 1) were 7.8 nM and 3.5 nM, respectively. Also, in assay [4] (Table 1), the “Classification CB1” value is “Partial agonist”. The “Classification CB2” value in [6] is “Partial agonist”.
As for `Cc1c(C(=O)NN2CCCCC2)nn(-c2ccc(Cl)cc2Cl)c1-c1ccc(Cl)cc1` [SR141716A], the “Classification CB2” value in [6] is “Inverse agonist”.
In the case of `Cc1ccc(Cn2nc(C(=O)NC3C4(C)CCC(C4)C3(C)C)cc2-c2ccc(Cl)c(C)c2)cc1` [SR144528, 5-(4-Chloro-3-methyl-phenyl)-1-(4-methyl-benzyl)-1H-pyrazole-3-carboxylic acid ((1S)-1,3,3-trimethylbicyclo[2.2.1]hept-2endo,exo-yl)-amide], the IC50 was ~9 µM in assay [1] (setting [11]), 9 µM in assay [1] (setting [12]) and ~5 µM in [9]. In addition, the “survival and resorptive activity of authentic rabbit osteoclasts” value in [2] is “inhibit”. The osteoblast survival entry in assay [8] is “little activity”. Moreover, the “ovariectomy-induced bone loss, trabecular density” value in [3] (6 mg/kg daily injection, 21 days, pQCT, tibia) is listed as “very effective at reversing the bone loss”. The “ovariectomy-induced bone loss in a mouse model” value in assay [3] is given as “completely reverse”. Also, in assay [10], the “ovariectomy-induced bone loss at the femoral site (femoral bone mineral content and density)” value was “very effective at reversing the bone loss”. Also, the “Classification CB1” value in [4] is “Inverse agonist”.
For `Cc1c(C(=O)c2cccc3ccccc23)c2cccc3c2n1[C@H](CN1CCOCC1)CO3` [WIN55212], the “J774 viability (summary in words)” value in assay [1] was “do not affect”. The “IC50 in J774 cells” value in assay [1] (J774 viability assay, Table 2) is “inactive”. Moreover, in [1] (concentrations of up to 100 μM), the “effect on J774 survival” value was “did not affect”. The “CB receptor function (CB2)” value in assay [6] is reported as “CB2 agonist”.
`Cc1ccc(Cn2nc(C(=O)NCc3ccc4c(c3)OCO4)cc2-c2ccc(Cl)c(C)c2)cc1` [benzodioxo, 5-(4-Chloro-3-methyl-phenyl)-1-(4-methyl-benzyl)-1H-pyrazole-3-carboxylic acid (benzo[1,3]dioxol-5-yl-methyl) amide]: in assay [1] (setting [11]), the IC50 was ~15 µM.
With `COC(=O)c1cc(-c2ccc(Cl)c(C)c2)n(Cc2ccc(C)cc2)n1` [methyl, 5-(4-Chloro-3-methyl-phenyl)-1-(4-methyl-benzyl)-1H-pyrazole-3-carboxylic acid methyl ester], the IC50 in assay [1] (setting [11]) is ~9 µM.
With `Cc1ccc(Cn2nc(C(=O)NN3CCCCC3)cc2-c2ccc(Cl)c(C)c2)cc1` [piperidinyl, 5-(4-Chloro-3-methyl-phenyl)-1-(4-methyl-benzyl)-1H-pyrazole-3-carboxylic acid piperidin-1-yl amide], the IC50 in [1] (setting [11]) was ~15 µM.
In the case of `CCCCCc1cc(O)c2c(c1)OC(C)(C)[C@@H]1CCC(C)=C[C@@H]21` [Δ^9THC, Δ^9-tetrahydrocannabinol], in assay [6], the “Classification CB2” value is on record as “Neutral antagonist”.
